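Method: 48-hour compound exposure of cells in 96-well plates, five concentrations, linear interpolation of endpoints. GI50: concentration for 50% inhibition of growth. TGI: total growth inhibition.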
How the values were obtained:
Assay in all cases: NCI tumour cell line growth inhibition, 48 h
786-0 renal = test system: 786-0 renal
A498 renal = test system: A498 renal
A549 NSCLC = test system: A549 NSCLC
ACHN renal = test system: ACHN renal
BT-549 breast = test system: BT-549 breast
CAKI-1 renal = test system: CAKI-1 renal
CCRF-CEM leukemia = test system: CCRF-CEM leukemia
COLO 205 colon = test system: COLO 205 colon
DU-145 prostate = test system: DU-145 prostate
EKVX NSCLC = test system: EKVX NSCLC
HCC-2998 colon = test system: HCC-2998 colon
HCT-116 colon = test system: HCT-116 colon
HCT-15 colon = test system: HCT-15 colon
HL-60(TB) leukemia = test system: HL-60(TB) leukemia
HOP-62 NSCLC = test system: HOP-62 NSCLC
HOP-92 NSCLC = test system: HOP-92 NSCLC
HS 578T breast = test system: HS 578T breast
HT29 colon = test system: HT29 colon
IGROV1 ovarian = test system: IGROV1 ovarian
K-562 leukemia = test system: K-562 leukemia
KM12 colon = test system: KM12 colon
M14 melanoma = test system: M14 melanoma
MALME-3M melanoma = test system: MALME-3M melanoma
MCF7 breast = test system: MCF7 breast
MDA-MB-231 breast = test system: MDA-MB-231 breast
MDA-MB-435 = test system: MDA-MB-435
MOLT-4 leukemia = test system: MOLT-4 leukemia
NCI-H226 lung = test system: NCI-H226 lung
NCI-H23 lung = test system: NCI-H23 lung
NCI-H460 lung = test system: NCI-H460 lung
NCI-H522 lung = test system: NCI-H522 lung
NCI/ADR-RES ovarian = test system: NCI/ADR-RES ovarian
OVCAR-4 ovarian = test system: OVCAR-4 ovarian
OVCAR-5 ovarian = test system: OVCAR-5 ovarian
OVCAR-8 ovarian = test system: OVCAR-8 ovarian
PC-3 prostate = test system: PC-3 prostate
RPMI-8226 leukemia = test system: RPMI-8226 leukemia
RXF 393 renal = test system: RXF 393 renal
SF-268 CNS = test system: SF-268 CNS
SF-295 CNS = test system: SF-295 CNS
SF-539 CNS = test system: SF-539 CNS
SK-MEL-2 melanoma = test system: SK-MEL-2 melanoma
SK-MEL-28 melanoma = test system: SK-MEL-28 melanoma
SK-MEL-5 melanoma = test system: SK-MEL-5 melanoma
SK-OV-3 ovarian = test system: SK-OV-3 ovarian
SN12C renal = test system: SN12C renal
SNB-19 CNS = test system: SNB-19 CNS
SNB-75 CNS = test system: SNB-75 CNS
SW-620 colon = test system: SW-620 colon
T-47D breast = test system: T-47D breast
TK-10 renal = test system: TK-10 renal
U251 CNS = test system: U251 CNS
UACC-257 melanoma = test system: UACC-257 melanoma
UACC-62 melanoma = test system: UACC-62 melanoma
UO-31 renal = test system: UO-31 renal

Question: What does the source list for `C#Cc1nc(C(=O)NCCC(=O)Nc2ccc(NC(=O)c3ccc(/C=C/C(=O)c4nccn4C)cc3)cc2)cs1`?
Answer: GI50 (786-0 renal): 0.939 µM; TGI (786-0 renal): 1.76 µM; GI50 (A498 renal): 7.39 µM; TGI (A498 renal): 19.2 µM; GI50 (A549 NSCLC): 2.23 µM; TGI (A549 NSCLC): > 50 µM; GI50 (ACHN renal): 0.899 µM; TGI (ACHN renal): 1.66 µM; GI50 (BT-549 breast): 1.76 µM; TGI (BT-549 breast): 11.3 µM; GI50 (CAKI-1 renal): 2.41 µM; TGI (CAKI-1 renal): 20.1 µM; GI50 (CCRF-CEM leukemia): 0.954 µM; TGI (CCRF-CEM leukemia): 2.32 µM; GI50 (COLO 205 colon): 4.95 µM; TGI (COLO 205 colon): 47 µM; GI50 (DU-145 prostate): 2.32 µM; TGI (DU-145 prostate): > 50 µM; GI50 (EKVX NSCLC): 2.79 µM; TGI (EKVX NSCLC): > 50 µM; GI50 (HCC-2998 colon): 2.14 µM; TGI (HCC-2998 colon): 7.95 µM; GI50 (HCT-116 colon): 1 µM; TGI (HCT-116 colon): 2.1 µM; GI50 (HCT-15 colon): 0.85 µM; TGI (HCT-15 colon): 1.98 µM; GI50 (HL-60(TB) leukemia): 0.857 µM; TGI (HL-60(TB) leukemia): 2.53 µM; GI50 (HOP-62 NSCLC): 1.15 µM; TGI (HOP-62 NSCLC): 2.83 µM; GI50 (HOP-92 NSCLC): 1.07 µM; TGI (HOP-92 NSCLC): 2.78 µM; GI50 (HS 578T breast): 4.55 µM; TGI (HS 578T breast): > 50 µM; GI50 (HT29 colon): 1.13 µM; TGI (HT29 colon): 2.54 µM; GI50 (IGROV1 ovarian): 0.878 µM; TGI (IGROV1 ovarian): 1.8 µM; GI50 (K-562 leukemia): 1.2 µM; TGI (K-562 leukemia): > 50 µM; GI50 (KM12 colon): 2.88 µM; TGI (KM12 colon): 32.5 µM; GI50 (M14 melanoma): 3.43 µM; TGI (M14 melanoma): 20.8 µM; GI50 (MALME-3M melanoma): 1.4 µM; TGI (MALME-3M melanoma): 4.64 µM; GI50 (MCF7 breast): 1.26 µM; TGI (MCF7 breast): 4.98 µM; GI50 (MDA-MB-231 breast): 1.13 µM; TGI (MDA-MB-231 breast): 2.6 µM; GI50 (MDA-MB-435): 1.71 µM; TGI (MDA-MB-435): 6.79 µM; GI50 (MOLT-4 leukemia): 1.29 µM; TGI (MOLT-4 leukemia): 3.53 µM; GI50 (NCI-H226 lung): 1.35 µM; TGI (NCI-H226 lung): 4.02 µM; GI50 (NCI-H23 lung): 1.22 µM; TGI (NCI-H23 lung): 3.41 µM; GI50 (NCI-H460 lung): 1.57 µM; TGI (NCI-H460 lung): 4.6 µM; GI50 (NCI-H522 lung): 1.04 µM; TGI (NCI-H522 lung): 2.27 µM; GI50 (NCI/ADR-RES ovarian): 3.27 µM; TGI (NCI/ADR-RES ovarian): > 50 µM; GI50 (OVCAR-4 ovarian): 24.9 µM; TGI (OVCAR-4 ovarian): > 50 µM; GI50 (OVCAR-5 ovarian): 1.58 µM; TGI (OVCAR-5 ovarian): 4.94 µM; GI50 (OVCAR-8 ovarian): 1.75 µM; TGI (OVCAR-8 ovarian): > 50 µM; GI50 (PC-3 prostate): 1.38 µM; TGI (PC-3 prostate): 3.88 µM; GI50 (RPMI-8226 leukemia): 0.934 µM; TGI (RPMI-8226 leukemia): 2.2 µM; GI50 (RXF 393 renal): 1.04 µM; TGI (RXF 393 renal): 2.75 µM; GI50 (SF-268 CNS): 1.72 µM; TGI (SF-268 CNS): 13.3 µM; GI50 (SF-295 CNS): 2.37 µM; TGI (SF-295 CNS): 8.43 µM; GI50 (SF-539 CNS): 0.911 µM; TGI (SF-539 CNS): 1.67 µM; GI50 (SK-MEL-2 melanoma): 35.8 µM; TGI (SK-MEL-2 melanoma): > 50 µM; GI50 (SK-MEL-28 melanoma): 7 µM; TGI (SK-MEL-28 melanoma): 29.9 µM; GI50 (SK-MEL-5 melanoma): 3.13 µM; TGI (SK-MEL-5 melanoma): 11.1 µM; GI50 (SK-OV-3 ovarian): 11.5 µM; TGI (SK-OV-3 ovarian): > 50 µM; GI50 (SN12C renal): 1.3 µM; TGI (SN12C renal): 4.49 µM; GI50 (SNB-19 CNS): 1.83 µM; TGI (SNB-19 CNS): 7.4 µM; GI50 (SNB-75 CNS): 1.43 µM; TGI (SNB-75 CNS): 9.71 µM; GI50 (SW-620 colon): 1.23 µM; TGI (SW-620 colon): 2.83 µM; GI50 (T-47D breast): 2.22 µM; TGI (T-47D breast): > 50 µM; GI50 (TK-10 renal): 8.94 µM; TGI (TK-10 renal): > 50 µM; GI50 (U251 CNS): 0.886 µM; TGI (U251 CNS): 2.04 µM; GI50 (UACC-257 melanoma): 18.7 µM; TGI (UACC-257 melanoma): > 50 µM; GI50 (UACC-62 melanoma): 3.01 µM; TGI (UACC-62 melanoma): 10.9 µM; GI50 (UO-31 renal): 0.763 µM; TGI (UO-31 renal): 1.49 µM
